Patent US6613308B2, “Pulmonary delivery in treating disorders of the central nervous system” (Advanced Inhalation Research, Inc., priority 2000, dated 2003)

What was measured:
in vivo [1] = settings: Sprague Dawley, rat, 7 mg powder
[2] = cited from earlier work
in vivo [3] = settings: rat; for bioavailability / bioavailability at 15 min / bioavailability at 60 min: 2 mg
Description: Determinations of plasma levels of L-Dopa were made following IV injection, oral gavage, or insufflation into the lungs. Carbidopa generally is administered to ensure that peripheral decarboxylase activity is completely shut down. In this example, animals received an intraperitoneal (IP) injection of the peripheral decarboxylase inhibitor carbidopa (200 mg/kg) 1 hour prior to administration of L-Dopa. Under ketamine anesthesia, the animals were divided into 3 groups. In the first group of animals, L-Dopa (2 mg) was suspended in saline containing 1% methylcellulose and 1% ascorbic acid and given via oral gavage. In the second group, an insufflation technique was used for pulmonary administration of particles including L-Dopa (20% loading density). A laryngoscope was used to visualize the rat's epiglottis and the blunt-tip insufflation device (PennCentury Insufflation powder delivery device) was inserted into the airway. A bolus of air (3 cc), from an attached syringe, was used to delivery the pre-loaded powder from the chamber of the device into the animal's lungs. A total of 10 mg of powder (2 mg L-Dopa) was delivered. In the third group, a previously-placed femoral cannula was used to delivery a bolus (2-3 second) of L-Dopa (2 mg). Blood samples (200 μL) were withdrawn from each animal using the femoral cannula at the following timepoints: 0 (immediately prior to L-Dopa administration), 2, 5, 15, 30, 60, 120, and 240 minutes following L-Dopa administration. All samples were processed for L-Dopa determinations using HPLC.
Bioavailability was estimated by performing area under the curve (AUC) calculations.

[4] = tested on: rat model of Parkinson's disease (unilateral 6-OHDA lesion); assay: Placing task; type: in vivo
[5] = tested on: rat model of Parkinson's disease (unilateral 6-OHDA lesion); assay: Bracing task; type: in vivo
[6] = tested on: rat model of Parkinson's disease (unilateral 6-OHDA lesion); assay: Akinesia task; type: in vivo
[7] = tested on: rat model of Parkinson's disease (unilateral 6-OHDA lesion); assay: Rotation test; type: in vivo
Description: Animals also were tested on a standard pharmacodynamics rotation test known to be a sensitive and reliable measure of dopamine activity in the brain. […] These doses were chosen for this test because they represent the doses of L-Dopa shown to produce maximal efficacy in the previous functional tests. Following dosing, animals were placed into a cylindrical Plexiglas bucket. […] Animals were also tested for rotation behavior with and without pre-treatment with carbidopa. […] Because the dopamine depletions are unilateral, the uninjected side remained intact and still able respond to changes in dopamine activity. When these animals were injected with a dopamine agonist (i.e. L-Dopa) brain dopamine activity was stimulated preferentially on the intact side. […] The onset and number of rotations provided a measure of both the time course as well as the extent of increased dopamine activity.

migraine = settings: cited from earlier work
[8] = cited from earlier work; remark: listed apart in the source

With `CC(C(=O)O)c1cccc(C(=O)c2ccccc2)c1` (centres unmarked) [Ketoprofen] the concentration at 5 min (in vivo [1]) was 9600 ng/mL, the concentration at 15 min (in vivo [1]) was 7600 ng/mL and the concentration at 30 min (in vivo [1]) was 5500 ng/mL. It also gave a concentration at 60 min (in vivo [1]) of 4500 ng/mL, a concentration at 120 min (in vivo [1]) of 2400 ng/mL and a concentration at 240 min (in vivo [1]) of 1800 ng/mL. For the same molecule, the concentration at 360 min (in vivo [1]) was 1800 ng/mL, the concentration at 480 min (in vivo [1]) was 1300 ng/mL and the concentration at 5 min (in vivo [1]; po) was 1700 ng/mL. It also gave a concentration at 15 min (in vivo [1]; po) of 2100 ng/mL, a concentration at 30 min (in vivo [1]; po) of 1900 ng/mL and a concentration at 60 min (in vivo [1]; po) of 2000 ng/mL. The concentration at 120 min (in vivo [1]; po) was 1700 ng/mL, the concentration at 240 min (in vivo [1]; po) was 1400 ng/mL and the concentration at 360 min (in vivo [1]; po) was 1000 ng/mL. The concentration at 480 min (in vivo [1]; po) was 1000 ng/mL and the “Tmax via the oral route” value ([2]; oral) was “about 90 min”.
In the case of `N[C@@H](Cc1ccc(O)c(O)c1)C(=O)O` [L-Dopa, levodopa], the concentration at 2 min (in vivo [3]) is reported as 5000 ng/mL, the bioavailability (in vivo [3]) is reported as ~75% and the bioavailability at 15 min (in vivo [3]) is reported as 38%. The bioavailability at 60 min (in vivo [3]) was 62%, the concentration at 2 min (in vivo [3]; po) was 1000 ng/mL and the bioavailability (in vivo [3]; po) was 33%. The bioavailability at 15 min (in vivo [3]; po) was 9%, the bioavailability at 60 min (in vivo [3]; po) was 24% and the “difference in drug required for equivalent efficacy, oral vs pulmonary” value ([4]; 30 mg/kg oral vs 1 mg pulmonary, normalized by body weight) was ~10 fold. The “time of maximal effects” value ([4]; oral 20 mg/kg) was 60 min, the “time of peak performance” value ([4]; oral 30 mg/kg) was 1 to 2 h and the “time to improved performance with impaired limb” value ([4]; oral 30 mg/kg) was ≤ 30 min. For the same molecule, the “lowest dose with significant improvements” value ([4]; pulmonary) was 0.5 mg, the “time of peak benefits” value ([4]; pulmonary, highest dose tested) was 15 to 30 min and the “time to significant improvements” value ([4]; pulmonary, highest dose tested) was ≤ 10 min. The “time of maximal effects” value ([5]; oral 30 mg/kg) was ≤ 60 min, the “time to improved performance” value ([5]; oral 30 mg/kg) was ≤ 30 min and the “lowest dose with statistically significant improvements” value ([5]; pulmonary) was 0.5 mg. For the same molecule, the “time of peak benefits” value ([5]; pulmonary) was 15 to 30 min, the “time to significant improvements” value ([5]; pulmonary) was ≤ 10 min and the “time of maximal effects” value ([6]; oral 30 mg/kg) was ≤ 60 min. The “time to improved performance” value ([6]; oral 30 mg/kg) was ≤ 30 min, the “lowest dose with statistically significant (p<0.05) improvements” value ([6]; pulmonary) was 1.0 mg and the “time of peak benefits” value ([6]; pulmonary) was 15 to 30 min. For the same molecule, the “time to significant improvements” value ([6]; pulmonary) was ≤ 10 min, the “time of peak rotations” value ([7]; oral 30 mg/kg) was “approximately 30 minutes” and the “rotations during the first 10-15 minutes” value ([7]; oral 30 mg/kg, carbidopa pre-treatment) was < 5 rotations/animal. The “time of peak rotations” value ([7]; pulmonary 2 mg total) was 25 to 30 min and the “rotations relative to oral delivery within the first 10-15 minutes” value ([7]; pulmonary 2 mg total vs oral 30 mg/kg) was “greater than 3 times”.
In the case of `CNS(=O)(=O)Cc1ccc2[nH]cc(CCN(C)C)c2c1` [sumatriptan], the efficacy rate (migraine; administered intravenously (IV)) is listed as 90% and the efficiency rate (migraine; oral form) is listed as “approximately 60%”.
In the case of `Cc1nnc2n1-c1ccc(Cl)cc1C(c1ccccc1Cl)=NC2` [triazolam], the solubility in alcohol ([8]; alcohol) is listed as “soluble” and the solubility in water ([8]; water) is listed as “poorly soluble”.
For `Cc1ccc(-c2nc3ccc(C)cn3c2CC(=O)N(C)C)cc1` [zolpidem], the Tmax ([2]; 5 mg tablet) is listed as 1.6 h, the “½ Life” value ([2]; 5 mg tablet) is listed as 2.6 h and the “time to peak plasma levels” value ([2]; in vivo) is listed as “about 2 hours”.
